Results: article PMC6273209, “Evaluation of the Enantiomer Specific Biokinetics and Radiation Doses of [^18F]Fluspidine—A New Tracer in Clinical Translation for Imaging of σ1 Receptors” (Molecules, 2016)

Key:
[1] = tested on: σ1 receptors; set-up: method as in PMID 25071097; details: σ1-rich areas of the porcine brain; cited from earlier work
[2] = First-in-human PET/CT dosimetry study; type: in vivo; details: for ED: first-in-human (clinical)
Experimental: The first-in-human use of (S)-(−)-[^18F]fluspidine was authorized by the competent authorities in Germany, the Federal Institute for Drugs and Medical Devices (Bundesamt für Arzneimittel und Medizinprodukte, BfArM) and the Federal Office for Radiation Protection (Bundesamt für Strahlenschutz, BfS) as well as by the local ethics committee and was conducted in accordance with the Declaration of Helsinki. Informed consent was obtained from four healthy volunteers (2 f, 2 m; age: 23 ± 3 years; weight: 56 ± 4 kg). The volunteers were positioned supine with the arms down in a clinical PET/CT system (Biograph 16, Siemens, Erlangen, Germany) and received an intravenous injection of 255 ± 9 MBq (S)-(−)-[^18F]fluspidine. Simultaneously, the PET scan was started. It was divided into a dynamic part up to 2 h p.i. (7 frames) and a static part up to 7 h p.i. The volunteers left the investigation table four times to stretch out. All urine was collected, weighed, and the activity was determined in a gamma-counter (Packard Cobra II 5003 Auto Gamma Counting System, GMI, Ramsey, MN, USA) cross calibrated to the PET/CT system.
The PET images were iteratively (ordered-subsets expectation maximization, OSEM) reconstructed (preclinical: 4 iterations, 6 subsets; clinical: 4 iterations, 8 subsets) and corrected for decay, randoms, scatter, and dead time, μ-maps for attenuation correction of PET-emission data were derived from the CT or MR [49] structural data, respectively. The PET data were re-binned into 10 time frames (preclinical: 4 × 5 min, 1 × 10 min, and 5 × 15 min; clinical: 4 × 12 min, 3 × 16 min, 1 × 32 min, 1 × 40 min, and 1 × 48 min), and the reconstructed PET/MRI and PET/CT images were co-registered manually with ROVER (ABX, advanced chemical compounds, Radeberg, Germany, version 2.1.17). Quantitative evaluation was performed by drawing volumes of interest (VOI) for brain, gallbladder, large intestine, small intestine, stomach, heart, kidneys, liver, lungs, pancreas, red marrow (backbone, pelvis, sternum), spleen, thyroid, testes, and urinary bladder (Figure S4). The PET derived biokinetic data is expressed as percentage of injected activity (dose) per cubic centimeter (%ID/cm^3).
The human dosimetry estimation was performed with the data extrapolated as well as the genuine human data using OLINDA/EXM software. The time-activity curves were estimated by exponential fitting and calculating the time integral, which equals the number of disintegrations (NODs) per organ during the observation period normalized to 1 Becquerel administered activity dose. […] Therefore, activity data of the urinary bladder was derived from the image for each time point. In contrast, for humans the activity concentration data of the urinary bladder was obtained in a more direct approach. At first, the activity and volume of urine was determined in the last frame of the PET scan before each micturition. Afterwards, the voided urine was collected, weighed, and the activity of three aliquots (assuming 1 mL = 1 g) determined with a gamma counter, and the activity of the whole sample estimated. The difference between imaged and sampled urine activity is equal to the residue of radioactive urine in the urinary bladder. To calculate the NOD in the human urinary bladder, the time-activity curve is integrated using a trapezoidal equation (3) %ID˜UB=1/2∑i=1n−1(%IDi+%IDi+1)(ti+1−ti) with the fraction of injected activity %IDi at the time ti and the cumulated activity of the urinary bladder i.e., the NOD %ID˜UB .
Furthermore, the NODs of the gastric system were calculated following the ICRP GI model (ICRP 30) as implemented in OLINDA 1.0. The NODs obtained either from the EXM module or the trapezoidal equation were transferred to OLINDA. The OD for the chosen hermaphroditic adult male phantom is estimated following the MIRD scheme. The S values are pre-calculated and implemented for the respective phantom in OLINDA. […]

[3] = first-in-human PET/CT, adult male model
[4] = first-in-human PET/CT, ICRP 103 weighting
[5] = four volunteers after i.v. injection

In the case of `[18F]CC[C@H]1OC2(CCN(Cc3ccccc3)CC2)c2ccccc21` [(R)-(+)-[^18F]fluspidine], the “binding potential (BPnd), fold higher in comparison to (S)-(−)-[^18F]fluspidine” value [1] is given as 5- to 10 fold.

With `FCC[C@@H]1OC2(CCN(Cc3ccccc3)CC2)c2ccccc21` [(S)-(−)-[^18F]fluspidine] the ED ([2]; four healthy volunteers, ICRP 103 weighting) was 21.0 ± 1.3 μSv/MBq, the ED ([2]; four healthy volunteers, ICRP 103 weighting, listed as (S)-(−)-[^18F]Fluspidine) was 21.0 μSv/MBq and the “OD Adrenals” value [2, 3] was 15.3 μSv/MBq. The “OD Brain” value [2, 3] was 22.6 μSv/MBq, the “OD Breasts” value [2, 3] was 6.5 μSv/MBq and the “OD Gallbladder Wall” value [2, 3] was 60.7 μSv/MBq. For the same compound, the “OD Heart Wall” value [2, 3] was 17.7 μSv/MBq, the “OD Kidneys” value [2, 3] was 31.1 μSv/MBq and the “OD LLI Wall” value [2, 3] was 16.6 μSv/MBq. For the same compound, the “OD Liver” value [2, 3] was 76.0 μSv/MBq, the “OD Lungs” value [2, 3] was 28.2 μSv/MBq and the “OD Muscle” value [2, 3] was 7.8 μSv/MBq. The “OD Osteogenic Cells” value [2, 3] was 18.0 μSv/MBq, the “OD Ovaries” value [2, 3] was 13.8 μSv/MBq and the “OD Pancreas” value [2, 3] was 15.9 μSv/MBq. For the same compound, the “OD Red Marrow” value [2, 3] was 23.2 μSv/MBq, the “OD Skin” value [2, 3] was 5.3 μSv/MBq and the “OD Small Intestine” value [2, 3] was 56.9 μSv/MBq. For the same compound, the “OD Spleen” value [2, 3] was 24.0 μSv/MBq, the “OD Stomach Wall” value [2, 3] was 31.5 μSv/MBq and the “OD Testes” value [2, 3] was 8.0 μSv/MBq. For the same compound, the “OD Thymus” value [2, 3] was 7.5 μSv/MBq, the “OD Thyroid” value [2, 3] was 8.4 μSv/MBq and the “OD Total Body” value [2, 3] was 11.4 μSv/MBq. The “OD ULI Wall” value [2, 3] was 24.3 μSv/MBq, the “OD Urinary Bladder Wall” value [2, 3] was 24.7 μSv/MBq and the “OD Uterus” value [2, 3] was 13.0 μSv/MBq. The “ED Contr. Adrenals” value [2, 4] was 0.1 μSv/MBq, the “ED Contr. Brain” value [2, 4] was 0.2 μSv/MBq and the “ED Contr. Breasts” value [2, 4] was 0.8 μSv/MBq. For the same compound, the “ED Contr. Gallbladder Wall” value [2, 4] was 0.5 μSv/MBq, the “ED Contr. Heart Wall” value [2, 4] was 0.2 μSv/MBq and the “ED Contr. Kidneys” value [2, 4] was 0.3 μSv/MBq. The “ED Contr. LLI Wall” value [2, 4] was 1.0 μSv/MBq, the “ED Contr. Liver” value [2, 4] was 3.0 μSv/MBq and the “ED Contr. Lungs” value [2, 4] was 3.4 μSv/MBq. The “ED Contr. Muscle” value [2, 4] was 0.1 μSv/MBq, the “ED Contr. Osteogenic Cells” value [2, 4] was 0.2 μSv/MBq and the “ED Contr. Ovaries” value [2, 4] was 1.0 μSv/MBq. For the same compound, the “ED Contr. Pancreas” value [2, 4] was 0.1 μSv/MBq, the “ED Contr. Red Marrow” value [2, 4] was 2.8 μSv/MBq and the “ED Contr. Skin” value [2, 4] was 0.1 μSv/MBq. For the same compound, the “ED Contr. Small Intestine” value [2, 4] was 0.5 μSv/MBq, the “ED Contr. Spleen” value [2, 4] was 0.2 μSv/MBq and the “ED Contr. Stomach Wall” value [2, 4] was 3.8 μSv/MBq. For the same compound, the “ED Contr. Testes” value [2, 4] was 0.8 μSv/MBq, the “ED Contr. Thymus” value [2, 4] was 0.1 μSv/MBq and the “ED Contr. Thyroid” value [2, 4] was 0.3 μSv/MBq. The “ED Contr. Total Body” value [2, 4] was 0.0 μSv/MBq, the “ED Contr. ULI Wall” value [2, 4] was 1.5 μSv/MBq and the “ED Contr. Urinary Bladder Wall” value [2, 4] was 1.0 μSv/MBq. The “ED Contr. Uterus” value [2, 4] was 0.1 μSv/MBq, the “ED ICRP 60” value ([2]; first-in-human, four healthy volunteers, ICRP 60 weighting) was 22.1 μSv/MBq and the adverse effects [2, 5] was “no adverse effects reported”. The “changes in vital signs” value [2, 5] was “no significant changes in vital signs”, the “clearance of the radioligand from organs” value ([2]; human TACs, brain, stomach, liver, spleen) was “rapidly removed from brain, stomach, liver, and spleen within one hour post injection” and the “actual ED from the human study in comparison to the extrapolated animal data” value ([2]; human vs extrapolated animal data, p < 0.001) was 1.6 fold.
